The text below walks through data of PubChem BioAssay AID1194 (EPA DSSTox, 2008).

In this data set the test system is Salmonella typhimurium Ames mutagenicity, literature compiled. As to the kind of experiment: DSSTox (CPDBAS) Carcinogenic Potency Database Salmonella Mutagenicity. An outline of the steps: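 Calls derive from published evaluations rather than new testing; overall "positive" in EPA Gene-Tox, or "mutagenic"/"weakly mutagenic" per Zeiger, counts as active.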

Activity calls are given as the source filed them.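 The calls were made as follows: active = chemicals rated mutagenic or weakly mutagenic in the Salmonella bacterial test by one literature review, or positive overall by another; inconclusive = no clear call, values can overlap the other calls; inactive = the rest.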

As to `COc1cc(/C=C/C(=O)CC(=O)/C=C/c2ccc(O)c(OC)c2)ccc1O`, the outcome was inactive. On to `c1ccccc1`, for which the outcome is “inactive; active”. With `Oc1cccc(O)c1` the entry was “inactive”; with `ClC(Cl)(Cl)Cl`, “inactive; active”; with `c1ccc2c(c1)Oc1ccccc1O2`, “inactive”. Under `COP(=S)(OC)Oc1ccc(SC)c(C)c1` stands “inactive; active”. Consider `C[N+](C)(C)CCCl`, for which the outcome is “inactive; active”.

For the compound `CC(=O)C(N=Nc1ccc(-c2ccc(N=NC(C(C)=O)C(=O)Nc3ccccc3)c(Cl)c2)cc1Cl)C(=O)Nc1ccccc1` (stereo unspecified), the result was inactive.

Take `S=C([S-])NCCNC(=S)[S-].[Zn+2]`: the outcome was “inactive; active”.

As to `CC(C)(C)c1cc(O)ccc1O`, the result was inactive.

For the compound `c1ccc2cc(Nc3ccc(Nc4ccc5ccccc5c4)cc3)ccc2c1`, the outcome was active.

Turning to `N[C@@H](Cc1ccc(N(CCCl)CCCl)cc1)C(=O)O`, the outcome was “active; inactive”. With `COc1cc2c(c3oc(=O)c4c(c13)CCC4=O)C1C=COC1O2` (stereo unspecified) the entry was “active”. With `C=CC(O)c1ccc2c(c1)OCO2` (stereo unspecified) the entry was “inactive”. With `COC(=O)C(c1ccccc1)C1CCCCN1` (stereo unspecified) the entry was “inactive”; with `C=CC`, “active; inactive”; with `O=c1oc2c(O)c(O)cc3c(=O)oc4c(O)c(O)cc1c4c23`, “inactive”.

For the compound `CN(N=O)C(=O)c1ccccc1`, the result was active. With `O=C1OC(c2ccc(O)cc2)(c2ccc(O)cc2)c2ccccc21` the entry was “inactive”; with `Nc1ccc(-c2ccccc2)cc1`, “active”. With `O=S1(=O)CC=CC1` the entry was “inactive; active”; with `CC(=O)Nc1nc(NC(C)=O)nc(-c2ccc([N+](=O)[O-])o2)n1`, “active; inactive”. Under `N[C@@H](Cc1c[nH]c2ccccc12)C(=O)O` stands “inactive; active”; under `O=Nc1ccc(NO)cc1`, “active; inactive”. As to `Nc1ccc(S(=O)(=O)c2ccc(N)cc2)cc1`, the outcome is “inactive; active”. Under `C=C(C)C` stands “inactive”.

As to `Cc1cccc(N=Nc2ccc(N(C)C)cc2)c1`, the outcome was “active; inactive”. With `CN(C)C(=O)Nc1ccc(Cl)cc1` the entry was “inactive; active”; with `CCCCN(CCCC)N=O`, “active; inactive”; with `NC1CCCCC1`, “inactive; active”. For the compound `COP(=O)(OC)O/C(=C\Cl)c1cc(Cl)c(Cl)cc1Cl`, the outcome is “inactive; active”.

Take `ClCc1ccccn1`: the outcome was active. Under `O=C(O)CN(CCN(CC(=O)O)CC(=O)O)CC(=O)O` stands “inactive”; under `C=C1C/C(=C/C)C(=O)O[C@@H]2CCN3CC=C(COC(=O)[C@@]1(O)CO)[C@H]23`, “active; inactive”. Under `C=CCc1ccc(O)c(OC)c1` stands “inactive”; under `C1COCCO1`, “inactive; inconclusive”; under `CCCc1cc(=O)[nH]c(=S)[nH]1`, “inactive; active”. With `CCCCOCCO` the entry was “inactive; active”; with `ClCc1cccnc1`, “active; inactive”.

With `O=S(=O)(O)c1cc(S(=O)(=O)O)c2c(N=Nc3ccccc3)c(O)ccc2c1`, the outcome is “inactive; active”.

As for `CCCCC(CC)CO` (stereo unspecified), the outcome was “inactive; active”. Under `c1ccc(C2CO2)cc1` (stereo unspecified) stands “active; inactive”; under `CCN(Cc1cccc(S(=O)(=O)O)c1)c1ccc(C(=C2C=CC(=[N+](CC)Cc3cccc(S(=O)(=O)[O-])c3)C=C2)c2ccc(S(=O)(=O)O)cc2)cc1`, “inactive; active”. Under `C=CC(=O)NCO` stands “inactive”; under `CC#N`, “inactive”; under `OC[C@H]1O[C@@](CO)(O[C@H]2O[C@H](CO)[C@@H](O)[C@H](O)[C@H]2O)[C@@H](O)[C@@H]1O`, “inactive; active”.

Consider `Cc1cccn2c1nc1ccc(N)nc12`, for which the outcome was active. Under `CCCOC(=O)c1cc(O)c(O)c(O)c1` stands “inactive”; under `CN(N=O)c1cccnc1`, “inactive; active”.

As to `Cc1cc(C(C)(C)C)c(O)c(C(C)(C)C)c1`, the result was inactive. In the case of `ClCC(Cl)(Cl)Cl`, the outcome is “inactive; active”. In the case of `O=C1CCO1`, the result was active.

Turning to `C=CCOC(=O)CC(C)C`, the outcome was “inactive; active”.

For the compound `O=NN(CCCl)C(=O)N[C@@H]1[C@@H](O)[C@H](O)[C@@H](CO)O[C@@H]1O`, the outcome is “active; inactive”. Under `ClC1=C(Cl)[C@]2(Cl)[C@@H]3[C@H]4C[C@H]([C@@H]5O[C@H]45)[C@@H]3[C@@]1(Cl)C2(Cl)Cl` stands “inactive; active”; under `CC1=CC(=O)CC(C)(C)C1`, “inactive; active”; under `O=P1(N(CCCl)CCCl)NCCCO1` (stereo unspecified), “active”. Under `CC(=O)Nc1ccc(N=Nc2cc(C)ccc2O)cc1` stands “active”; under `C[C@@H]1O[C@@H](OC[C@H]2O[C@@H](Oc3c(-c4ccc(O)c(O)c4)oc4cc(O)cc(O)c4c3=O)[C@H](O)[C@@H](O)[C@@H]2O)[C@H](O)[C@H](O)[C@H]1O`, “active; inactive”; under `CC(=O)c1ccc(S(=O)(=O)NC(=O)NC2CCCCC2)cc1`, “inactive”. With `CN(C)c1ccc(C(=O)c2ccc(N(C)C)cc2)cc1`, the outcome was “active; inactive”.

On to `[Cd+2].[Cl-].[Cl-]`, for which the outcome was “inactive; active”. As to `O=P1(NCCCl)OCCCN1CCCl` (stereo unspecified), the outcome is “active; inactive”.

Turning to `BrC(Br)Br`, the outcome was active. Under `Cc1ccc2ncccc2c1` stands “active”; under `Nc1cc(S(=O)(=O)O)cc2cc(S(=O)(=O)O)c(N=Nc3ccc(-c4ccc(N=Nc5c(S(=O)(=O)O)cc6cc(S(=O)(=O)O)cc(N)c6c5O)cc4)cc3)c(O)c12`, “active”. For the compound `[N-]=[N+]=[N-]`, the outcome was “active; inactive”.

As to `C=CCc1ccc2c(c1)OCO2`, the outcome is “inactive; active”. Under `O.O.O.O.O.O.O.O=S(=O)([O-])[O-].[Co+2]` stands “active”; under `CCCl`, “active”.

For the compound `c1ccc2c(c1)Nc1ccccc1S2`, the result was inactive.

On to `CC/C(=C(/CC)c1ccc(O)cc1)c1ccc(O)cc1`, for which the outcome was inactive.

For `COc1cccc2c1C(=O)c1c(O)c3c(c(O)c1C2=O)C[C@@](O)(C(=O)CO)C[C@@H]3O[C@H]1C[C@H](N)[C@H](O)[C@H](C)O1`, the outcome was active.

As to `COc1cc2c(c3oc(=O)c4c(c13)CC[C@H]4O)[C@@H]1C=CO[C@H]1O2`, the result was active. Under `Cc1ccccc1N` stands “active”; under `Oc1ccc(O)cc1`, “inactive”. Under `Cc1cc(C)c(N=Nc2c(O)c(S(=O)(=O)O)cc3cc(S(=O)(=O)O)ccc23)cc1C` stands “inactive; active”; under `OC[P+](CO)(CO)CO`, “inactive; active”.

`NN`: the outcome is “active; inactive”. For the compound `CCCC[C@H](C)[C@@H](OC(=O)C[C@H](CC(=O)O)C(=O)O)[C@@H](C[C@H](C)C[C@@H](O)CCCC[C@@H](O)C[C@H](O)[C@H](C)N)OC(=O)C[C@H](CC(=O)O)C(=O)O`, the outcome was inactive.

Regarding `C=Cc1cccc(C)c1`, the outcome is “inactive; active”.

For the compound `OCCN(CCO)CCO`, the outcome was “inactive; active”. Under `O=NN1CCN(N=O)CC1` stands “active; inactive”; under `C=C(C)[C@H]1CC=C(C)C(=O)C1`, “inactive; active”; under `Nc1cc(Cl)cc(C(=O)O)c1Cl`, “active”.

For the compound `c1ccc(Nc2ccc3ccccc3c2)cc1`, the outcome was “inactive; active”. With `C1CC2OC2CC1C1CO1` (stereo unspecified) the entry was “active”. With `COC(=O)c1ccc(C(=O)OC)cc1` the entry was “inactive; active”; with `C1N2CN3CN1CN(C2)C3`, “active”; with `CC(O)c1ccccc1` (stereo unspecified), “inactive; active”. With `Nc1ccc(Sc2ccc(N)cc2)cc1` the entry was “active; inactive”; with `Cc1cc(Cc2ccc(N)c(C)c2)ccc1N`, “active”. In the case of `O=C(O)Cc1c[nH]c2ccccc12`, the result was inactive. With `Cc1ccc(O)c(O)c1` the entry was “inactive; active”; with `Cc1cc2ncccc2c2nc(N)n(C)c12`, “active”.

As for `Nc1ccccc1-c1ccccc1`, the result was active. Under `CC1(C)COC1=O` stands “active”; under `Nc1ccc(N=Nc2ccc(-c3ccc(N=Nc4c(S(=O)(=O)O)cc5cc(S(=O)(=O)O)c(N=Nc6ccccc6)c(O)c5c4N)cc3)cc2)c(N)c1`, “active”. Under `Cc1ccc(N=Nc2c(O)ccc3ccccc23)c([N+](=O)[O-])c1` stands “active; inactive”.

Take `CCOC(=O)CBr`: the outcome was active. With `O=C(O)[C@@H]1[C@H](C(=O)O)[C@@]2(Cl)C(Cl)=C(Cl)[C@]1(Cl)C2(Cl)Cl` the entry was “inactive; active”; with `C=CF`, “active; inactive”. With `CN(C)[C@@H]1C(=O)C(C(N)=O)=C(O)[C@@]2(O)C(=O)C3=C(O)c4c(O)cccc4[C@@](C)(O)[C@H]3[C@H](O)[C@@H]12` the entry was “inactive”. On to `CCCN(CCC)c1c([N+](=O)[O-])cc(C(F)(F)F)cc1[N+](=O)[O-]`, for which the result was active. With `CCN(Cc1cccc(S(=O)(=O)O)c1)c1ccc(C(=C2C=CC(=[N+](CC)Cc3cccc(S(=O)(=O)O)c3)C=C2)c2ccc(O)cc2S(=O)(=O)[O-])cc1` the entry was “inactive; active”; with `O.O.O.O.O.O.O=S(=O)([O-])[O-].[Ni+2]`, “inactive; active”.
